Data from ChEMBL document CHEMBL3525904, “Effect of structural variation on aldehyde oxidase-catalyzed oxidation of zoniporide” (Drug Metab Dispos, 2012).
Values belong to the molecule of their own block, whether it stands above or below them.

Assays:
Type in all cases: ADME, subcellular
[1] = biological target: T1, Aldehyde oxidase (Homo sapiens, UniProt Q06278); assay: Half life in human liver S9 fraction assessed as aldehyde oxidase-mediated 2-oxo-metabolite formation at 1 uM by spectrometry; conditions: s9, 1 µM
T1 sequence (Q06278 whole entry): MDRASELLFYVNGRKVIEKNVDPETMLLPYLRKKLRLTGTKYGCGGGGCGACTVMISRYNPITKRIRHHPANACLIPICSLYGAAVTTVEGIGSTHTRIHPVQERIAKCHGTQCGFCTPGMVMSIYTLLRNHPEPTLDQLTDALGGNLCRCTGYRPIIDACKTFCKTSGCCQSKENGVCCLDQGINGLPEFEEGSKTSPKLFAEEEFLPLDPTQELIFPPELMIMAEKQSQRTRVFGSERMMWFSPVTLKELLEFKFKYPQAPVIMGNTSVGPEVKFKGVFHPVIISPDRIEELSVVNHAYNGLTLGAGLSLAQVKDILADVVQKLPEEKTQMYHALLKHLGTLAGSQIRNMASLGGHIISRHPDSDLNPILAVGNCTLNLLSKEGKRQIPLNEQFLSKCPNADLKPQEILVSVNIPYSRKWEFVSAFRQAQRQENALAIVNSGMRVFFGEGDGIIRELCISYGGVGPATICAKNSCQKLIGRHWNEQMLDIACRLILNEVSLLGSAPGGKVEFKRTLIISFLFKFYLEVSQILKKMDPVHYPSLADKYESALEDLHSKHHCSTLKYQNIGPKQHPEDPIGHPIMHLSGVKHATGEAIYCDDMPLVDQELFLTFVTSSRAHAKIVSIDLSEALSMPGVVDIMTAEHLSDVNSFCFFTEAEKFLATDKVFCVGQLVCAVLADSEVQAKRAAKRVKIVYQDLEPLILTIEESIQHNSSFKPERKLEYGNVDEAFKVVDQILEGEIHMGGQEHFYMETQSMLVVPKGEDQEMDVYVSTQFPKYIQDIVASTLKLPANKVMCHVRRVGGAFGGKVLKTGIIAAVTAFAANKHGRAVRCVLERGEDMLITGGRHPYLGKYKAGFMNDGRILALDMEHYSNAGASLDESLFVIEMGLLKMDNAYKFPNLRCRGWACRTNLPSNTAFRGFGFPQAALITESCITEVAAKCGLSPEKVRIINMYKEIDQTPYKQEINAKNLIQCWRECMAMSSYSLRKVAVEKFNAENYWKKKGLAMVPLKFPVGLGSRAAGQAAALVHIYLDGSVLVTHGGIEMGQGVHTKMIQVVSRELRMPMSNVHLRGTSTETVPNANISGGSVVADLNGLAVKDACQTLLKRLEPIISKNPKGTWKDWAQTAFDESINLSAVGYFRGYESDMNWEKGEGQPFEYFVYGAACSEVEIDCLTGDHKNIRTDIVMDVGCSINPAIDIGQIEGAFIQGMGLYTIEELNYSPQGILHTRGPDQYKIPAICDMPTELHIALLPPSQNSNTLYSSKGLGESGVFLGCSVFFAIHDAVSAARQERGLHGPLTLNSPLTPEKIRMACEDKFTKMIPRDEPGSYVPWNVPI

[2] = biological target: T1, Aldehyde oxidase; assay: Drug metabolism in human liver S9 fraction assessed as aldehyde oxidase-mediated 2-oxo-metabolite formation at 10 uM by spectrometry; conditions: s9, 10 µM
[3] = biological target: T1, Aldehyde oxidase; assay: Drug level in human liver S9 fraction assessed as aldehyde oxidase-mediated compound formation treated with 10 uM N-carbamimidoyl-5-(methoxymethyl)-1-(quinolin-5-yl)-1H-pyrazole-4-carboxamide by spectrometry
[4] = biological target: T1, Aldehyde oxidase; assay: Drug level in human liver S9 fraction assessed as aldehyde oxidase-mediated compound formation treated with 10 uM 5-cyclopropyl-1-(quinolin-5-yl)-1H-pyrazole-4-carboxamide by spectrometry
[5] = biological target: T1, Aldehyde oxidase; assay: Drug level in human liver S9 fraction assessed as aldehyde oxidase-mediated compound formation treated with 10 uM N-carbamimidoyl-5-cyclopropyl-1-(6-methylquinolin-5-yl)-1H-pyrazole-4-carboxamide by spectrometry
[6] = biological target: T1, Aldehyde oxidase; assay: Drug level in human liver S9 fraction assessed as aldehyde oxidase-mediated compound formation treated with 10 uM N-carbamimidoyl-5-propyl-1-(quinolin-5-yl)-1H-pyrazole-4-carboxamide by spectrometry
[7] = biological target: T1, Aldehyde oxidase; assay: Drug level in human liver S9 fraction assessed as aldehyde oxidase-mediated compound formation treated with 10 uM N-carbamimidoyl-3-cyclopropyl-1-(quinolin-5-yl)-1H-pyrazole-4-carboxamideby spectrometry
[8] = biological target: T1, Aldehyde oxidase; assay: Drug level in human liver S9 fraction assessed as aldehyde oxidase-mediated compound formation treated with 10 uM 5-cyclopropyl-1-(quinolin-5-yl)-1H-pyrazole-4-carboxylic acid by spectrometry
[9] = biological target: T1, Aldehyde oxidase; assay: Drug level in human liver S9 fraction assessed as aldehyde oxidase-mediated compound formation treated with 10 uM zoniporide by spectrometry
[10] = biological target: T1, Aldehyde oxidase; assay: Drug level in human liver S9 fraction assessed as aldehyde oxidase-mediated compound formation treated with 10 uM N-carbamimidoyl-5-cyclopropyl-1-(6-methoxyquinolin-5-yl)-1H-pyrazole-4-carboxamide by spectrometry
[11] = biological target: T1, Aldehyde oxidase; assay: Drug level in human liver S9 fraction assessed as aldehyde oxidase-mediated compound formation treated with 10 uM N-carbamimidoyl-5-methyl-1-(quinolin-5-yl)-1H-pyrazole-4-carboxamide by spectrometry
[12] = biological target: T1, Aldehyde oxidase; assay: Drug level in human liver S9 fraction assessed as aldehyde oxidase-mediated compound formation treated with 10 uM 5-butyl-N-carbamimidoyl-1-(quinolin-5-yl)-1H-pyrazole-4-carboxamide by spectrometry
[13] = biological target: T1, Aldehyde oxidase; assay: Drug level in human liver S9 fraction assessed as aldehyde oxidase-mediated compound formation treated with 10 uM 5-cyclopropyl-N,N-diethyl-1-(quinolin-5-yl)-1H-pyrazole-4-carboxamide by spectrometry
[14] = biological target: T1, Aldehyde oxidase; assay: Drug level in human liver S9 fraction assessed as aldehyde oxidase-mediated compound formation treated with 10 uM N-carbamimidoyl-5-isopropyl-1-(quinolin-5-yl)-1H-pyrazole-4-carboxamide by spectrometry
[15] = biological target: T1, Aldehyde oxidase; assay: Drug level in human liver S9 fraction assessed as aldehyde oxidase-mediated compound formation treated with 10 uM N-carbamimidoyl-5-cyclopropyl-1-(6-hydroxyquinolin-5-yl)-1H-pyrazole-4-carboxamide by spectrometry
[16] = substrate: CC(C)c1c(C(=O)NC(=N)N)cnn1-c1cccc2ncccc12; assay: (§1) Drug metabolism in human liver S9 fraction assessed as aldehyde oxidase-mediated 2-oxo-metabolite formation by spectrometry
[17] = substrate: CCN(CC)C(=O)c1cnn(-c2cccc3ncccc23)c1C1CC1; assay: as §1
[18] = substrate: COCc1c(C(=O)NC(=N)N)cnn1-c1cccc2ncccc12; assay: as §1
[19] = substrate: N=C(N)NC(=O)c1cn(-c2cccc3ncccc23)nc1C1CC1; assay: as §1
[20] = substrate: N=C(N)NC(=O)c1cnn(-c2ccc3ncccc3c2)c1C1CC1; assay: as §1
[21] = substrate: N=C(N)NC(=O)c1cnn(-c2ccnc3ccccc23)c1C1CC1; assay: as §1

t1/2 [1]: 120 min | Drug metabolism [2]: metabolite_detected
Molecule: N=C(N)NC(=O)c1cnn(-c2c(O)ccc3ncccc23)c1C1CC1

t1/2 [1]: 26 min | Drug metabolism [2]: metabolite_detected
Molecule: N=C(N)NC(=O)c1cnn(-c2cccc3ncccc23)c1C1CC1 [ZONIPORIDE]

t1/2 [1]: 120 min | Drug metabolism [2]: metabolite_detected
Molecule: COCc1c(C(=O)NC(=N)N)cnn1-c1cccc2ncccc12

Drug metabolism [3]: metabolite_detected
Molecule: COCc1c(C(=O)NC(=N)N)cnn1-c1cccc2[nH]c(=O)ccc12

t1/2 [1]: 120 min | Drug metabolism [2]: metabolite_detected
Molecule: N=C(N)NC(=O)c1cnn(-c2cccc3[nH]cnc23)c1C1CC1

t1/2 [1]: 48 min | Drug metabolism [2]: metabolite_detected
Molecule: CCCCc1c(C(=O)NC(=N)N)cnn1-c1cccc2ncccc12

t1/2 [1]: 41 min | Drug metabolism [2]: metabolite_detected
Molecule: CCCc1c(C(=O)NC(=N)N)cnn1-c1cccc2ncccc12

Drug metabolism [4]: metabolite_detected
Molecule: NC(=O)c1cnn(-c2cccc3[nH]c(=O)ccc23)c1C1CC1

Drug metabolism [5]: metabolite_detected
Molecule: Cc1ccc2[nH]c(=O)ccc2c1-n1ncc(C(=O)NC(=N)N)c1C1CC1

t1/2 [1]: 14 min | Drug metabolism [2]: metabolite_detected
Molecule: N=C(N)NC(=O)c1cnn(-c2ccnc3ccccc23)c1C1CC1

Drug metabolism [6]: metabolite_detected
Molecule: CCCc1c(C(=O)NC(=N)N)cnn1-c1cccc2[nH]c(=O)ccc12

Drug metabolism [2]: metabolite_not_detected
Molecule: N=C(N)NC(=O)c1cnn(-c2cccc3[nH]ncc23)c1C1CC1

t1/2 [1]: 37 min | Drug metabolism [2]: metabolite_detected
Molecule: CCN(CC)C(=O)c1cnn(-c2cccc3ncccc23)c1C1CC1

t1/2 [1]: 120 min | Drug metabolism [2]: metabolite_detected
Molecule: Cc1ccc2ncccc2c1-n1ncc(C(=O)NC(=N)N)c1C1CC1

Drug metabolism [7]: metabolite_detected
Molecule: N=C(N)NC(=O)c1cn(-c2cccc3[nH]c(=O)ccc23)nc1C1CC1

t1/2 [1]: 120 min | Drug metabolism [2]: metabolite_detected
Molecule: O=C(O)c1cnn(-c2cccc3ncccc23)c1C1CC1

Drug metabolism [2]: metabolite_not_detected
Molecule: N=C(N)NC(=O)c1cnn(-c2cccc3[nH]ccc23)c1C1CC1

Drug metabolism [8]: metabolite_detected
Molecule: O=C(O)c1cnn(-c2cccc3[nH]c(=O)ccc23)c1C1CC1

Drug metabolism [9]: metabolite_detected
Molecule: N=C(N)NC(=O)c1cnn(-c2cccc3[nH]c(=O)ccc23)c1C1CC1

Drug metabolism [10]: metabolite_detected
Molecule: COc1ccc2[nH]c(=O)ccc2c1-n1ncc(C(=O)NC(=N)N)c1C1CC1

Drug metabolism [11]: metabolite_detected
Molecule: Cc1c(C(=O)NC(=N)N)cnn1-c1cccc2[nH]c(=O)ccc12

t1/2 [1]: 3.1 min | Drug metabolism [2]: metabolite_detected
Molecule: N=C(N)NC(=O)c1cn(-c2cccc3ncccc23)nc1C1CC1

Drug metabolism [12]: metabolite_detected
Molecule: CCCCc1c(C(=O)NC(=N)N)cnn1-c1cccc2[nH]c(=O)ccc12

t1/2 [1]: 110 min | Drug metabolism [2]: metabolite_detected
Molecule: NC(=O)c1cnn(-c2cccc3ncccc23)c1C1CC1

Drug metabolism [13]: metabolite_detected
Molecule: CCN(CC)C(=O)c1cnn(-c2cccc3[nH]c(=O)ccc23)c1C1CC1

t1/2 [1]: 15 min | Drug metabolism [2]: metabolite_detected
Molecule: CC(C)c1c(C(=O)NC(=N)N)cnn1-c1cccc2ncccc12

t1/2 [1]: 33 min | Drug metabolism [2]: metabolite_detected
Molecule: Cc1c(C(=O)N=C(N)N)cnn1-c1cccc2ncccc12

t1/2 [1]: < 5 min | Drug metabolism [2]: metabolite_detected
Molecule: N=C(N)NC(=O)c1cnn(-c2ccc3ncccc3c2)c1C1CC1

t1/2 [1]: 120 min | Drug metabolism [2]: metabolite_detected
Molecule: COc1ccc2ncccc2c1-n1ncc(C(=O)NC(=N)N)c1C1CC1

Drug metabolism [14]: metabolite_detected
Molecule: CC(C)c1c(C(=O)NC(=N)N)cnn1-c1cccc2[nH]c(=O)ccc12

Drug metabolism [15]: metabolite_detected
Molecule: N=C(N)NC(=O)c1cnn(-c2c(O)ccc3[nH]c(=O)ccc23)c1C1CC1

B1: Aldehyde oxidase (Homo sapiens) (protein)
chain: T1 sequence (Q06278 whole entry)
Km [16]: 2.2 µM | Km [17]: 16 µM | Km [18]: 9 µM | Km [19]: 0.4 µM | Km [20]: 1.2 µM | Km [21]: 1.8 µM
